These results are taken from US9458176B2, “Tetrahydroimidazo(1,5-D)[1,4]oxazepine derivative” (Eisai R&D Management Co., Ltd., priority 2013, dated 2016).

Molecules are shown by their SMILES.

Sequence of human mGluR2 (Q14416 19-872): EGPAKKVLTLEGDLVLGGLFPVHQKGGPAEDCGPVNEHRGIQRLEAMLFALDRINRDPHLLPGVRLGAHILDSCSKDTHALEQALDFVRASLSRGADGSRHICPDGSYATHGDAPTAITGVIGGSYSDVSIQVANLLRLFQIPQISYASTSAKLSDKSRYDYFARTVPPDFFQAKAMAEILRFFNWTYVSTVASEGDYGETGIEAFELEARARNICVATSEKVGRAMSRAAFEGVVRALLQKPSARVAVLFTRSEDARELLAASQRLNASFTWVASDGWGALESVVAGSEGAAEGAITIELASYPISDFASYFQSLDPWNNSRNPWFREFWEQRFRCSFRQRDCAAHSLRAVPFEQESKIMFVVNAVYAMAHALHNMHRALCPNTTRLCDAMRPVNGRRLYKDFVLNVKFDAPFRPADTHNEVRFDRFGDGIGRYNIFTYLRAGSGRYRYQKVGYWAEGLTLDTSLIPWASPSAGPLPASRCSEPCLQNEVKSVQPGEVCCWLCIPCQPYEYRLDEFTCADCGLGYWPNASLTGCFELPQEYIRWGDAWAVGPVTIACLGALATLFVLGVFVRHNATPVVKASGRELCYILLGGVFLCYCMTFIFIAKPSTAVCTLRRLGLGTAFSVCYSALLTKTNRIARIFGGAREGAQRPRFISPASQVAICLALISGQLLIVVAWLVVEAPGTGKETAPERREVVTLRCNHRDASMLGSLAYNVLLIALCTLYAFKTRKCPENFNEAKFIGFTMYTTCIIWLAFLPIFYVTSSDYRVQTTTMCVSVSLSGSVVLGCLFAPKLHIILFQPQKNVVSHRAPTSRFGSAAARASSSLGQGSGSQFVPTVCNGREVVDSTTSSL

The experiment concerns the target human mGluR2 (Homo sapiens (Human), UniProt Q14416). The experiment can be described thus: [35S]GTPγS binding assay (Affinity to mGluR2). The format is biochemical. The following applies: cell membrane fraction of HEK293 cells stably expressing human mGluR2; glutamic acid 10 μM. As to the method:
(Preparation of Cell Membrane Fraction of HEK293 Cells Stably Expressing Human Metabotropic Glutamate Receptor 2 (mGluR2))
HEK293 cells stably expressing human mGluR2 and human glutamate transporter SLC1A3 were cultured in a Dulbecco's modified Eagle's medium with 10% fetal bovine serum (50 units/mL of penicillin, 50 μg/mL of streptomycin, 60 μg/mL of geneticin, 400 μg/mL of hygromycin B and 2 mM of glutamine) at 37° C. under 5% CO2. Confluent cell cultures were washed twice with PBS(−), and then scraped off with a cell scraper, and subjected to centrifugal separation at 4° C. and 1500 rpm for 5 minutes for collecting cells. The centrifuged sediment (cell pellet) was homogenized in a 20 mM HEPES buffer containing 10 mM EDTA (pH 7.4) by using sonicator and centrifuged at 4° C. and 1500×g for 30 minutes. The supernatant (soluble fraction) was subjected to the centrifugal separation at 4° C. and 40,000×g for 30 minutes, and thus, insoluble fraction was obtained. After additional centrifugally washing the obtained fraction with 20 mM HEPES buffer containing 10 mM EDTA (pH 7.4), the pellet was centrifugally suspended with a 20 mM HEPES buffer containing 0.1 mM EDTA, and the cell membrane fraction was obtained by the centrifugal separation at 4° C. and 40,000×g for 30 minutes. The thus obtained cell membrane fraction was suspended in a 20 mM HEPES buffer containing 0.1 mM EDTA in a protein concentration of 3 mg/mL, which was stored at −80° C.
([^35S]GTPγS Binding Assay)
The frozen cell membrane fraction prepared as described above was thawed before use, and the resultant was diluted with a buffer for a binding assay (final concentrations: 20 mM HEPES, 100 mM NaCl, 1 mM MgCl2, 3 μM GDP, 300 μg/mL saponin, 0.1% BSA). The compound of each example was added to a cell membrane fraction containing 1.8 to 3 μg/assay of membrane protein on a plate, followed by incubation at room temperature for 30 minutes. Thereafter, with glutamic acid (in a final concentration of 10 μM) added thereto, incubation was performed at room temperature for 15 minutes, and thereafter, [^35S]GTPγS (in a final concentration of 0.8 kBq) and 588 μg WGA-SPA beads were added thereto, followed by incubation at room temperature for 1 hour. After the incubation, the plate was subjected to the centrifugal separation at 2,500 rpm and room temperature, and then, membrane cell binding radioactivity was measured with a top count.
A [^35S]GTPγS binding amount obtained by performing the above-described reaction in the absence of glutamic acid was defined as nonspecific binding, and a difference from a [^35S]GTPγS binding amount obtained in the presence of glutamic acid was defined as specific binding. On the basis of ratios of inhibiting the specific binding at various concentrations of the compounds of the respective examples, inhibition curves were obtained. Concentrations of the compounds of the respective examples at which the specific [^35S]GTPγS binding amount was suppressed by 50% (IC50 values) were calculated on the basis of the inhibition curves and shown in Tables 8 and 9.
For orientation: GTPγS resists hydrolysis and so accumulates on activated G proteins.
As usually defined, the IC50 is the concentration at which inhibition is half-maximal. Take `Cc1cc(-c2nc(-c3ccc(Cl)c(Cl)c3)n3c2CCO[C@H](CF)C3)ccn1` [Example 75]: the IC50 came out at 0.031 µM. With `Cc1cc(-c2nc(-c3ccc(Cl)c(Cl)c3)n3c2CCO[C@H](CF)C3)cc(C)n1` [Example 76] the figure was 0.0209 µM. With `CC[C@@H]1Cn2c(-c3ccc(Cl)c(OC)c3)nc(-c3cc(C)nc(C)c3)c2CCO1` [Example 77] the figure was 0.0115 µM; with `CC[C@@H]1Cn2c(-c3ccc(Cl)c(OC)c3)nc(-c3ccnc(C)c3)c2CCO1` [Example 78], 0.0038 µM; with `COc1cc(-c2nc(-c3cc(C)nc(C)c3)c3n2C[C@@H](C(F)F)OCC3)ccc1Cl` [Example 79], 0.0304 µM. With `COc1cc(-c2nc(-c3cc(C)nc(C(F)F)c3)c3n2C[C@@H](C)OCC3)ccc1C` [Example 80] the figure was 0.0063 µM; with `COc1cc(-c2nc(-c3cc(C)nc(C(F)F)c3)c3n2C[C@@H](CF)OCC3)ccc1C` [Example 81], 0.0071 µM.

For `CCOc1cc(-c2nc(-c3cc(C)nc(C)c3)c3n2C[C@@H](C)OCC3)ccc1C(F)(F)F` [Example 82], the IC50 amounted to 0.0011 µM. With `CCOc1cc(-c2nc(-c3ccnc(C)c3)c3n2C[C@@H](C)OCC3)ccc1C(F)(F)F` [Example 83] the figure was 0.0017 µM. With `C[C@@H]1Cn2c(-c3ccc(OC(F)(F)F)cc3)nc(-c3ccnc(CF)c3)c2CCO1` [Example 85] the figure was 0.0297 µM; with `Cc1cc(-c2nc(-c3ccc(OC(F)(F)F)cc3)n3c2CCO[C@H](C)C3)cc(CF)n1` [Example 86], 0.0044 µM. Take `Cc1cc(-c2nc(-c3ccc(Cl)c(C)c3)n3c2CCO[C@H](C)C3)cc(CF)n1` [Example 88]: the IC50 was 0.0167 µM. `Cc1cc(-c2nc(-c3ccc(Cl)c(Cl)c3)n3c2CCO[C@H](C)C3)cc(CF)n1` [Example 89]: the IC50 was found to be 0.0132 µM.

In turn, `COc1cc(-c2nc(-c3cc(C)nc(CF)c3)c3n2C[C@@H](C)OCC3)ccc1C` [Example 90] showed an IC50 of 0.0127 µM.

Molecule `COc1cc(-c2nc(-c3cc(C)nc(CF)c3)c3n2C[C@@H](CF)OCC3)ccc1Cl` [Example 91] returned a half-maximal inhibitory concentration (IC50) of 0.0161 µM. `Cc1cc(-c2nc(-c3ccc(F)c(OCC(F)F)c3)n3c2CCOCC3)cc(C)n1` [Example 92] showed an IC50 of 0.0958 µM. With `Cc1cc(-c2nc(-c3ccc(F)c(OCC(F)(F)F)c3)n3c2CCOCC3)cc(C)n1` [Example 93] the figure was 0.0287 µM; with `Cc1cc(-c2nc(-c3ccc(F)c(OCC4CC4)c3)n3c2CCOCC3)cc(C)n1` [Example 94], 0.0349 µM; with `Cc1cc(-c2nc(-c3ccc(F)c(OCC(C)C)c3)n3c2CCOCC3)cc(C)n1` [Example 95], 0.0495 µM. With `CCCOc1cc(-c2nc(-c3cc(C)nc(C)c3)c3n2CCOCC3)ccc1F` [Example 96] the figure was 0.0598 µM; with `Cc1cc(-c2nc(-c3ccc(F)c(OCC4CCC4)c3)n3c2CCOCC3)cc(C)n1` [Example 97], 0.0254 µM.

`Cc1cc(-c2nc(-c3ccc(F)c(OCC4CCC4)c3)n3c2CCO[C@H](C)C3)cc(C)n1` [Example 98] came in with a 50% inhibitory concentration (IC50) of 0.0031 µM. With `Cc1cc(-c2nc(-c3ccc(F)c(OCC4(C)COC4)c3)n3c2CCO[C@H](C)C3)cc(C)n1` [Example 99] the figure was 0.103 µM; with `Cc1cc(-c2nc(-c3ccc(F)c(OCC4CCC4)c3)n3c2CCO[C@H](C)C3)ccn1` [Example 100], 0.0253 µM; with `CCc1ccc(-c2nc(-c3ccnc(C)c3)c3n2C[C@@H](C)OCC3)cc1OC` [Example 101], 0.0076 µM. The molecule `CCOc1cc(-c2nc(-c3cc(C)nc(C)c3)c3n2CCOCC3)ccc1Cl` [Example 102] came in with an IC50 of 0.0227 µM. `Cc1cc(-c2nc(-c3ccc(Cl)c(Cl)c3)n3c2CCOCC3)cc(C)n1` [Example 103] had an IC50 of 0.026 µM. In turn, `Cc1cc(-c2nc(-c3ccc(Cl)c(F)c3)n3c2CCOCC3)cc(C)n1` [Example 105] yielded an IC50 of 0.0921 µM. With `Cc1cc(-c2nc(-c3ccc(OC(F)(F)F)c(F)c3)n3c2CCOCC3)cc(C)n1` [Example 106] the figure was 0.0209 µM; with `Cc1cc(-c2nc(-c3ccc(C(F)(F)F)c(F)c3)n3c2CCOCC3)cc(C)n1` [Example 107], 0.054 µM; with `Cc1cc(-c2nc(-c3ccc(Cl)c(C(F)(F)F)c3)n3c2CCOCC3)cc(C)n1` [Example 108], 0.0192 µM.

On to `Cc1cc(-c2nc(-c3ccc(C(F)(F)F)c(Cl)c3)n3c2CCOCC3)cc(C)n1` [Example 109], for which the 50% inhibitory concentration (IC50) was 0.0091 µM. With `Cc1cc(-c2nc(-c3ccc(Cl)c(C)c3)n3c2CCOCC3)cc(C)n1` [Example 110] the figure was 0.0642 µM; with `Cc1cc(-c2nc(-c3ccc(Cl)c(C#N)c3)n3c2CCOCC3)cc(C)n1` [Example 111], 0.0252 µM; with `Cc1cc(-c2nc(-c3ccc(OC(F)(F)F)c(Cl)c3)n3c2CCOCC3)cc(C)n1` [Example 112], 0.0179 µM. With `Cc1cc(-c2nc(-c3ccc(C(F)(F)F)c(C)c3)n3c2CCOCC3)cc(C)n1` [Example 113] the figure was 0.027 µM.

Consider `COc1cc(-c2nc(-c3ccnc(C)c3)c3n2C[C@@H](C)OCC3)ccc1Cl` [Example 114], for which the IC50 is 0.0192 µM. `Cc1cc(-c2nc(-c3ccnc(F)c3)c3n2CCOCC3)ccc1OC(F)(F)F` [Example 115] gave an IC50 of 0.0617 µM. With `Cc1cc(-c2nc(-c3ccc(OC(F)(F)F)c(C#N)c3)n3c2CCOCC3)cc(C)n1` [Example 116] the figure was 0.0338 µM; with `COc1cc(-c2nc(-c3cc(C)nc(C)c3)c3n2CCOCC3)ccc1OC(F)(F)F` [Example 117], 0.022 µM; with `Cc1cc(-c2nc(-c3ccc(OC(F)(F)F)c(C)c3)n3c2CCOCC3)ccn1` [Example 118], 0.0109 µM. `Cc1cc(-c2nc(-c3ccc(OC(F)F)c(F)c3)n3c2CCOCC3)cc(C)n1` [Example 119] displayed an IC50 of 0.0318 µM. With `Cc1cc(-c2nc(-c3ccc(OC(F)F)c(F)c3)n3c2CCOCC3)ccn1` [Example 120] the figure was 0.0472 µM. With `COc1cc(-c2nc(-c3cc(C)nc(C)c3)c3n2CCOCC3)ccc1C(F)F` [Example 121] the figure was 0.0409 µM; with `COc1cc(-c2nc(-c3cc(C)nc(C)c3)c3n2CCOCC3)ccc1C(F)(F)F` [Example 122], 0.0221 µM; with `COc1cc(-c2nc(-c3ccnc(C)c3)c3n2CCOCC3)ccc1C(F)(F)F` [Example 123], 0.036 µM.

In the case of `Cc1cc(-c2nc(-c3ccc(C(F)(F)F)c(C)c3)n3c2CCO[C@H](C)C3)cc(C)n1` [Example 124], the IC50 is 0.0045 µM. With `Cc1cc(-c2nc(-c3ccc(Cl)c(C(F)F)c3)n3c2CCOCC3)cc(C)n1` [Example 125] the figure was 0.0165 µM. With `Cc1cc(-c2nc(-c3ccc(Cl)c(C(F)F)c3)n3c2CCOCC3)ccn1` [Example 126] the figure was 0.0084 µM; with `COc1cc(-c2nc(-c3cc(C)nc(C)c3)c3n2CCOCC3)ccc1OC(F)F` [Example 127], 0.0121 µM; with `COc1cc(-c2nc(-c3cc(C)nc(C)c3)c3n2C[C@@H](C)OCC3)ccc1C(F)F` [Example 128], 0.0091 µM.

`Cc1cc(-c2nc(-c3ccc(C(F)(F)F)c(Cl)c3)n3c2CCO[C@H](C)C3)cc(C)n1` [Example 129] displayed an IC50 of 0.0157 µM. With `Cc1cc(-c2nc(-c3ccc(Cl)c(C#N)c3)n3c2CCO[C@H](C)C3)cc(C)n1` [Example 130] the figure was 0.026 µM.
